The results in this text go back to patent publication US11795163B2, “Compound for inhibiting nicotinamide phosphoribosyltransferase and composition containing same” (CHECKMATE THERAPEUTICS INC., priority 2016, dated 2023).

pIC50: −log10 of the molar value. Bounds are passed on as bounds.

For data set [1], the system named is H322. In words: Therapeutic effect of cancer cell line, IC50. The format is cell-based. The settings on record: NCI-H322; H322, NAPRT expression negative.
For data set [2], the system named is H661. In words: Therapeutic effect of cancer cell line, IC50. The class given is cell-based. Conditions: Homo sapiens, NCI-H661; H661, NAPRT expression negative.
Data set [3] has as its system H1115. In words: Therapeutic effect of cancer cell line, IC50. Conditions: H1115, NAPRT expression negative. The format is cell-based.
The test system of data set [4] is H1993. The data set is described as follows: Therapeutic effect of cancer cell line, IC50. The settings on record: Homo sapiens, NCI-H1993; H1993, NAPRT expression positive. The format is cell-based.
For data set [5], the system named is H2122. The data set is described as follows: Therapeutic effect of cancer cell line, IC50. The class given is cell-based. Conditions: Homo sapiens, NCI-H2122; H2122, NAPRT expression positive.
Data set [6] relates to HBEC30. In words: Therapeutic effect of cancer cell line, IC50. Conditions: HBEC30, NAPRT expression positive. The format is cell-based.
For data set [7], the system named is H1299. In words: Therapeutic effect of cancer cell line, IC50. The settings on record: Homo sapiens, NCI-H1299; H1299, NAPRT expression positive. The class given is cell-based.
Data set [8] deals with H1975. In words: Therapeutic effect of cancer cell line, IC50. The format is cell-based. Conditions: Homo sapiens, NCI-H1975; H1975, NAPRT expression positive.
Data set [9] has as its system H2030. In words: Therapeutic effect of cancer cell line, IC50. The format is cell-based. Conditions: Homo sapiens, NCI-H2030; H2030, NAPRT expression positive.
For data set [10], the system named is liver cell (THLE-2). The data set is described as follows: Toxicity assessment in normal cell line, cell viability. The format is cell-based. The settings on record: for toxicity: THLE-2, very high concentrations of 50 μM.
The test system of data set [11] is liver cell (THLE-3). In words: Toxicity evaluation in normal cell line, cell viability. The class given is cell-based. Conditions: for toxicity: THLE-3, very high concentrations of 50 μM.
A short description of data set [12]: Microsome stability evaluation. The format is in vitro ADME, human. Conditions: after 30 minutes, 1 μM compound, 0.3 mg/ml microsomal protein, 1 mM NADPH. How it is done: (§1) Metabolic stability was assessed using human liver microsomes and mouse liver microsomes. Specifically, pooled male mouse liver microsomes (in-house preparation per SOP), pooled human liver microsomes (XENOTECH; […] The reaction was stopped by addition of acetonitrile ([…]) containing the same volume of internal standard. The precipitated proteins were removed by centrifugation and the supernatant was analyzed by LC/MS-MS method. […] Residual % parent compound=(peak area at time x/peak area at TO)×100.

A short description of data set [13]: Microsome stability evaluation. The class given is in vitro ADME, mouse. Conditions: after 30 minutes, 1 μM compound, 0.3 mg/ml microsomal protein, 1 mM NADPH. As to the method:
as §1

For `O=C(NCc1ccc(-c2nc3ccc([N+](=O)[O-])cc3o2)cc1)c1cccnc1` [A4261], the figures for the pIC50 in data set [1], in [2] and in data set [3] were 7.52, more than 6.52 and more than 7.00, respectively.
Taken in the same sequence, the figures for `O=C(NCc1ccc(-c2nc3cc(-c4ccccc4)ccc3o2)cc1)c1cccnc1` [A4262] were 7.52, 4.52 and more than 7.00.
For `CC(C)(C)c1ccc2nc(-c3ccc(CNC(=O)c4cccnc4)cc3)oc2c1` [A4263] the same measures were more than 7.52, 6.00 and more than 6.52.
For `Cc1ccc2oc(-c3ccc(CNC(=O)c4cccnc4)cc3)nc2c1` [A4275] the same measures were 7.52, more than 6.52 and more than 6.52.
`CCc1ccc2nc(-c3ccc(CNC(=O)c4cccnc4)cc3)oc2c1` [A4302]: the pIC50 (commonly the negative decadic logarithm of the IC50, by convention in mol/L) in data set [1] was 7.00; in data set [2], 7.00; in data set [3] it was more than 6.52.
As to `Cc1ccc2nc(-c3ccc(CNC(=O)c4ccccc4)cc3)oc2c1` [A4303], the pIC50 in [1], in [2] and in data set [3] was 5.00 throughout.
Consider `COC(=O)c1ccc(NC(=O)c2cccnc2)cc1` [B1380], for which the pIC50 is 5.20 in data set [1]; 5.60 in [2]; less than 4.90 in data set [4]; less than 4.90 in [5]; less than 4.90 in data set [6].
On to `CC(C)OC(=O)c1ccc(NC(=O)c2cccnc2)cc1` [B1416], for which the pIC50 in [1] is more than 5.81.
Consider `CCc1nnc2sc(-c3ccc(CNC(=O)c4cccnc4)cc3)nn12` [B1423], for which the negative-log IC50 (pIC50) in data set [1] was 6.22; in data set [2], less than 6.00; in data set [3], 6.00; in [7], less than 4.00; in data set [8], less than 4.00; in data set [4], less than 4.00. The pIC50 in data set [9], in data set [5] and in data set [6] was less than 4.00 throughout.
Consider `Cc1nnc2sc(-c3ccc(CNC(=O)c4cccnc4)cc3)nn12` [B1468], for which the pIC50 was more than 7.62 in data set [1]; less than 6.00 in data set [2]; 5.50 in data set [3]; less than 4.00 in data set [7]; less than 4.00 in data set [8]; less than 4.00 in data set [4]. Moreover, the pIC50 in [9], in [5] and in data set [6] was less than 4.00 throughout. The toxicity entry in data set [10] and in data set [11] was “little toxicity” in each case.
Turning to `O=C(NCc1ccc(-c2nc3ccccc3s2)cc1)c1cccnc1` [B1469], the negative logarithm of the IC50 (pIC50) in [1] was 7.22.
For `O=C(NCc1ccc(-c2nc3ccccc3o2)cc1)c1cccnc1` [B1470], in data set [1], the pIC50 was 7.22.
`O=C(NCc1ccc(-c2nc3ncccc3o2)cc1)c1cccnc1` [B1472] showed a pIC50 in [1] of 6.52.
The molecule `COc1ccc2oc(-c3ccc(CNC(=O)c4cccnc4)cc3)nc2c1` [B1474] showed a pIC50 in data set [1] of 7.30.
For the molecule `O=C(Nc1ccc(C(=O)OC2CCCCC2)cc1)c1cccnc1` [B1477], the pIC50 in data set [1] was more than 7.62; in data set [2] it was less than 6.00; in [3], less than 6.00; in data set [7], more than 4.00; in data set [8], less than 4.00; in data set [4], more than 4.00. Besides, the values for the pIC50 in data set [9], in [5] and in data set [6] were more than 4.00, 4.50 and less than 4.00, respectively. The toxicity result in data set [10] and in [11] was “little toxicity” each time.
`CC(C)c1ccc2oc(-c3ccc(NC(=O)c4cccnc4)cc3)nc2c1` [B1479] gave a negative-log IC50 (pIC50) in data set [1] of 5.30.
The same measure, in the same setting: to `O=C(Nc1ccc(C(=O)c2cc3ccccc3o2)cc1)c1cccnc1` [B1484] belongs 7.30; to `CCc1nnc2sc(-c3ccc(NC(=O)c4cccnc4)cc3)nn12` [B1485], 7.52.
Still for that read-out and setting: to `O=C(Nc1ccc(-c2nn3cnnc3s2)cc1)c1cccnc1` [B1523] belongs 5.81; to `COC(=O)c1ccc(CCNC(=O)c2ccc3nccn3c2)cc1` [B1531], 5.20.
Same read-out and setting: the same measure for `Cc1ccc(-c2nc3cc(NC(=O)c4cccnc4)ccc3o2)cc1C` [B1716]: 4.90.
Regarding `O=C(NCCNC(=O)c1nc(-c2ccc(Cl)cc2)no1)c1cccnc1` [B1856], in [1], the pIC50 was 4.90.
The same measure, in the same setting: to `Cc1ccc(-c2noc(C(=O)NCCNC(=O)c3cccnc3)n2)cc1` [B1857] belongs 5.00; to `O=C(NCCNC(=O)c1nc(-c2cccs2)no1)c1cccnc1` [B1863], 4.90; to `COc1ccc(-c2noc(C(=O)NCCNC(=O)c3cccnc3)n2)cc1` [B1866], 5.00.
In turn, `O=C(NCCNC(=O)c1ccc2ccccc2n1)c1cccnc1` [B1872] gave a pIC50 in data set [1] of 5.00.
On the same count and under the same terms, to `O=C(NCCNC(=O)c1nc2ccccc2s1)c1cccnc1` [B1873] belongs 5.30; to `O=C(Nc1ccc2c(c1)CN(C(=O)/C=C/c1cccnc1)CC2)c1ccncc1` [B1963], 6.41; to `CC(C)c1cc(C(F)(F)F)n2nc([C@H]3CCN(C(=O)/C=C/c4cccnc4)C3)cc2n1` [B1964], 6.70.
With `Cc1nccn1-c1ccc(CNC(=O)c2cccnc2)cc1` [B1967], the negative-log IC50 (pIC50) in data set [1] was 4.90.
`O=C(/C=C/c1cccnc1)NCCCN1CCc2ccccc21` [B1975]: the pIC50 in [1] was 5.92.
Same read-out and setting: the same measure for `O=C(/C=C/c1cccnc1)N1CCN(Cc2csc(-c3ccco3)n2)CC1` [B1976]: 5.00.
Still for that read-out and setting: to `O=C(NCc1ccc(S(=O)(=O)N2CCOCC2)cc1)c1cccnc1` [B1977] belongs 5.20; to `O=C(NCc1ccc(N2CCCCC2)cc1)c1cccnc1` [B1978], 5.92; to `O=C(NCc1ccc(OCc2ccccn2)cc1)c1cccnc1` [B1979], 6.11.
On the same count and under the same terms, to `O=C(NCc1ccc(S(=O)(=O)N2CCCCC2)cc1)c1cccnc1` [B1981] belongs 5.51; to `CCN(CC)Cc1ccc(CNC(=O)c2cccnc2)cc1` [B1982], 4.92; to `Cn1/c(=N/NC(=O)/C=C/c2cccnc2)sc2ccccc21` [B1983], 6.52.
As for `O=C1CC2(CCCC2)CC(=O)N1CCCCN1CCN(c2ncccn2)CC1` [Buspirone, reference compound], the “Human(%) parent compound remaining” value in data set [12] was determined as 0.101 ± 0.028%. Besides, in data set [13], the “Mouse(%) parent compound remaining” value worked out at 3.189 ± 1.078%.
Regarding `CCc1ccc2oc(-c3ccc(CNC(=O)c4cccnc4)cc3)nc2c1` [Drug3, N-(4-(5-ethylbenzo[d]oxazol-2-yl)benzyl)nicotinamide], the negative logarithm of the IC50 (pIC50) in [1] is 6.00; in data set [2], more than 6.00; in data set [3] it was more than 5.51.
For `O=C(NCc1ccc(S(=O)(=O)c2cc(F)cc(F)c2)cc1)c1ccc2nccn2c1` [GNE617, N-(4-((3,5-difluorophenyl)sulfonyl)benzyl)imidazo[1,2-a]pyridine-6-carboxamide, reference compound], the negative-log IC50 (pIC50) was approximately 7.30 in data set [10] (Homo sapiens, THLE-2, FIG. 25) and approximately 7.30 in data set [11] (THLE3, THLE-3, FIG. 26).
